The assay addresses T1, HCV polymerase (Hepatitis C virus genotype 1b, UniProt P26663).
T1 construct: 2.5 pmoles (0.15 μg) HCV polymerase protein in a final volume of 75 μL
The assay can be described thus: HCV polymerase primer/template-directed transcription assay (32P-GTP incorporation, filter binding). Format: biochemical. The following applies: for pIC50: recombinant HCV polymerase, 30 minutes at 30° C., concentration giving 50% inhibition of polymerase-directed transcription, read-out: IC50; for inhibition at 50 µM: @ 50 uM compound, given where IC50 was impractical to calculate, read-out: percent inhibition. Put shortly: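 Recombinant genotype 1b polymerase (30 nM) extended biotin-dG12 primer on poly(rC)300 template with 1 μM GTP plus α-32P-GTP, pH 7.2, 10 mM MgCl2, 30 min at 30° C, 1% DMSO final. Products captured on DE filters and counted. IC50 fitted from triplicate cpm, with a tight-binding correction applied below 200 nM.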

The text below walks through data of US7473790B2 (Pfizer Inc., priority 2003, dated 2009).

The structures appear in SMILES notation. pIC50: −log10 of the molar value.

Broadly, the pIC50 is the negative decadic logarithm of the IC50, by convention in mol/L. As a reminder, the inhibition is the percentage by which the read-out fell short of the control.

T1 sequence (P26663 2420-3010): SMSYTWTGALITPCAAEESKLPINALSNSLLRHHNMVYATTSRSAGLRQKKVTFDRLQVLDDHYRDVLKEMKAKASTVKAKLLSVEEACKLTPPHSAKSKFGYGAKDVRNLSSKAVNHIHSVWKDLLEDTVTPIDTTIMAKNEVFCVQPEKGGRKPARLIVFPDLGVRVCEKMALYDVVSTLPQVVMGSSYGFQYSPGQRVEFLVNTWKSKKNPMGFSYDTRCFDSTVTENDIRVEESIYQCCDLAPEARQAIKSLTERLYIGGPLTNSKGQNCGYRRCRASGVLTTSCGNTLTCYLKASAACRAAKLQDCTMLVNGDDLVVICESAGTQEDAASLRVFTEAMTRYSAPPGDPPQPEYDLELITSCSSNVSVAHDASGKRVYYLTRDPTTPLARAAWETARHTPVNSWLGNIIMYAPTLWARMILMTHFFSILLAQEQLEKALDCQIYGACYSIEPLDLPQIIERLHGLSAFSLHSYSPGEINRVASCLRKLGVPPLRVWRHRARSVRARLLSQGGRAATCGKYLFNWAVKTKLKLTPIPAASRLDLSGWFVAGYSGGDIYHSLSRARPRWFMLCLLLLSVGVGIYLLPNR

Consider `COc1cc(OC)c(CCC2(C3CCCC3)CC(O)=C(Sc3nnc(CCN4CCOCC4)n3C)C(=O)O2)cc1Cl` (centres unmarked) [C(90), 6-[2-(5-chloro-2,4-dimethoxyphenyl)ethyl]-6-cyclopentyl-4-hydroxy-3-{[4-methyl-5-(2-morpholin-4-ylethyl)-4H-1,2,4-triazol-3-yl]thio}-5,6-dihydro-2H-pyran-2-one], for which the pIC50 is 7.40. The same measure, in the same setting: the result for `CCc1cc(CCC2(C3CCCC3)CC(O)=C(Cc3nc4ncc(Cl)cn4n3)C(=O)O2)cc(CC)c1O` (centres unmarked) [A(231), 3-[(6-chloro[1,2,4]triazolo[1,5-a]pyrimidin-2-yl)methyl]-6-cyclopentyl-6-[2-(3,5-diethyl-4-hydroxyphenyl)ethyl]-4-hydroxy-5,6-dihydro-2H-pyran-2-one] reads 8.22; that for `CCc1cc(CCC2(C3CCCC3)CC(O)=C(Cc3nc4nc(C)cc(C)n4n3)C(=O)O2)c(OC)cc1O` (centres unmarked) [A(150), 6-Cyclopentyl-3-(5,7-dimethyl-[1,2,4]triazolo[1,5-a]pyrimidin-2-ylmethyl)-6-[2-(5-ethyl-4-hydroxy-2-methoxy-phenyl)-ethyl]-4-hydroxy-5,6-dihydro-pyran-2-one], 8.15.

For the molecule `O=C(O)CC(O)(CCNC(=O)CCc1ccco1)C1CCCC1` (centres unmarked) [H(5), 3-Cyclopentyl-5-(3-furan-2-yl-propionylamino)-3-hydroxy-pentanoic acid], the inhibition at 50 µM was 7%. As for `CCc1cc(CCC2(C3CCCC3)CC(=O)C(Cc3nc4nc(C)cc(C)n4n3)C(=O)O2)ccc1F` (centres unmarked) [B(46), 6-cyclopentyl-3-[(5,7-dimethyl[1,2,4]triazolo[1,5-a]pyrimidin-2-yl)methyl]-6-[2-(3-ethyl-4-fluorophenyl)ethyl]dihydro-2H-pyran-2,4(3H)-dione], the pIC50 was 7.70.

Turning to `Cc1cnc2nc(CC3=C(O)CC(CCc4ccc(O)c(CC(F)(F)F)c4)(C4CCCC4)OC3=O)nn2c1` (centres unmarked) [A(224), 6-cyclopentyl-4-hydroxy-6-{2-[4-hydroxy-3-(2,2,2-trifluoroethyl)phenyl]ethyl}-3-[(6-methyl[1,2,4]triazolo[1,5-a]pyrimidin-2-yl)methyl]-5,6-dihydro-2H-pyran-2-one], the negative-log IC50 (pIC50) is 8.40.

Take `CC(C)(C#N)c1ccc(CCC2(C3CCCC3)CC(O)=C(Cc3cnc4ncccn34)C(=O)O2)cc1F` (centres unmarked) [A(222), 2-(4-{2-[2-cyclopentyl-4-hydroxy-5-(imidazo[1,2-a]pyrimidin-3-ylmethyl)-6-oxo-3,6-dihydro-2H-pyran-2-yl]ethyl}-2-fluorophenyl)-2-methylpropanenitrile]: the pIC50 is 6.92.

With `Cc1cc(C)n2nc(SC3=C(O)CC(C)(C4CCCC4)OC3=O)nc2n1` (centres unmarked) [C(17), 6-Cyclopentyl-3-(5,7-dimethyl-[1,2,4]triazolo[1,5-a]pyrimidin-2-ylsulfanyl)-4-hydroxy-6-methyl-5,6-dihydro-pyran-2-one], the inhibition at 50 µM is 2%. Consider `Cc1cc(C)n2nc(CC3=C(O)CC(CCc4ccc(C5(C)OCCO5)c(Cl)c4)(C4CCCC4)OC3=O)nc2n1` (centres unmarked) [B(122), 6-{2-[3-Chloro-4-(2-methyl-[1,3]dioxolan-2-yl)-phenyl]-ethyl}-6-cyclopentyl-3-(5,7-dimethyl-[1,2,4]triazolo[1,5-a]pyrimidin-2-ylmethyl)-4-hydroxy-5,6-dihydro-pyran-2-one], for which the negative logarithm of the IC50 (pIC50) is 8.15.

On to `N#CCc1cccc(CCC2(C3CCCC3)CC(=O)CC(=O)O2)c1` (centres unmarked) [A(70), {3-[2-(2-Cyclopentyl-4,6-dioxo-tetrahydro-pyran-2-yl)-ethyl]-phenyl}-acetonitrile], for which the pIC50 was 5.03. Consider `CCc1ccc(O)c(CCC2(C3CCCC3)CC(O)=C(Cc3nc4ncc(Cl)cn4n3)C(=O)O2)c1` (single isomer, unassigned; enantiomer 1) [A(171), Enantiomer 1 of 3-(6-Chloro-[1,2,4]triazolo[1,5-a]pyrimidin-2-ylmethyl)-6-cyclopentyl-6-[2-(5-ethyl-2-hydroxy-phenyl)-ethyl]-4-hydroxy-5,6-dihydro-pyran-2-one], for which the pIC50 was 8.40.

In the case of `O=C1CC(=O)OC(CSCc2ccco2)(C2CCCC2)C1` (centres unmarked) [I(2), 6-cyclopentyl-6-{[(2-furylmethyl)thio]methyl}dihydro-2H-pyran-2,4(3H)-dione], the inhibition at 50 µM is 22%. `COc1ccc(CCC2(C3CCCC3)CC(O)=C(Sc3nc4cc(Cl)c(Cl)cc4n3C)C(=O)O2)cc1Cl` (centres unmarked) [C(60), 6-[2-(3-chloro-4-methoxyphenyl)ethyl]-6-cyclopentyl-3-[(5,6-dichloro-1-methyl-1H-benzimidazol-2-yl)thio]-4-hydroxy-5,6-dihydro-2H-pyran-2-one]: the pIC50 was 7.82.

For the molecule `CC1(C)COc2ccc(CCC3(C4CCCC4)CC(=O)CC(=O)O3)cc21` (centres unmarked) [A(76), 6-Cyclopentyl-6-[2-(3,3-dimethyl-2,3-dihydro-benzofuran-5-yl)-ethyl]-dihydro-pyran-2,4-dione], the pIC50 is 5.24. Turning to `C[C@H](O)c1ccc(CCC2(C3CCCC3)CC(=O)CC(=O)O2)cc1` (some centres unmarked) [A(36), 6-Cyclopentyl-6-{2-[4-(1-hydroxy-ethyl)-phenyl]-ethyl}-dihydro-pyran-2,4-dione], the pIC50 was 5.08. Turning to `CCc1nc(CC2=C(O)CC(CCc3cc(CC)c(O)cc3OC)(C3CCCC3)OC2=O)c(C)[nH]1` (centres unmarked) [A(157), 6-Cyclopentyl-6-[2-(5-ethyl-4-hydroxy-2-methoxy-phenyl)-ethyl]-3-(2-ethyl-5-methyl-1H-imidazol-4-ylmethyl)-4-hydroxy-5,6-dihydro-pyran-2-one], the pIC50 was 7.19. As to `NS(=O)(=O)c1cccc(C#CCCC2(C3CCCC3)CC(=O)CC(=O)O2)c1` (centres unmarked) [F(2), 3-[4-(2-Cyclopentyl-4,6-dioxo-tetrahydro-pyran-2-yl)-but-1-ynyl]-benzenesulfonamide], the negative logarithm of the IC50 (pIC50) was 5.14.

Regarding `Cc1cc(C)n2nc(CC3=C(O)CC(CCc4ccc5c(c4)OCCO5)(C4CCCC4)OC3=O)nc2n1` (centres unmarked) [B(36), 6-Cyclopentyl-6-[2-(2,3-dihydro-benzo[1,4]dioxin-6-yl)-ethyl]-3-(5,7-dimethyl-[1,2,4]triazolo[1,5-a]pyrimidin-2-ylmethyl)-4-hydroxy-5,6-dihydro-pyran-2-one], the pIC50 was 7.38. On to `Cn1c(CC2=C(O)CC(CCc3ccc(C(C)(C)C#N)c(F)c3)(C3CCCC3)OC2=O)nc2cc(Cl)ccc21` (centres unmarked) [A(98), 2-[4-(2-{5-[(5-chloro-1-methyl-1H-benzimidazol-2-yl)methyl]-2-cyclopentyl-4-hydroxy-6-oxo-3,6-dihydro-2H-pyran-2-yl}ethyl)-2-fluorophenyl]-2-methylpropanenitrile], for which the pIC50 was 8.00.

For the molecule `COc1ccc(CCC2(C3CCCC3)CC(O)=C(Cc3cc(=O)n4c(C)csc4n3)C(=O)O2)cc1` (centres unmarked) [B(61), 7-({6-Cyclopentyl-4-hydroxy-6-[2-(4-methoxyphenyl)ethyl]-2-oxo-5,6-dihydro-2H-pyran-3-yl}methyl)-3-methyl-5H-[1,3]thiazolo[3,2-a]pyrimidin-5-one], the pIC50 was 6.92. On to `O=C1OC(CCC2CCCC2)(C2CCCC2)CC(O)=C1Sc1nnc(-c2ccncc2)[nH]1` (centres unmarked) [C(28), 6-Cyclopentyl-6-(2-cyclopentyl-ethyl)-4-hydroxy-3-(5-pyridin-4-yl-4H-[1,2,4]triazol-3-ylsulfanyl)-5,6-dihydro-pyran-2-one], for which the pIC50 is 5.10. As for `COc1cc(OC)c(CCC2(C3CCCC3)CC(O)=C(Cc3nc4ccsc4c(=O)[nH]3)C(=O)O2)cc1Cl` (centres unmarked) [B(64), 2-({6-[2-(5-Chloro-2,4-dimethoxyphenyl)ethyl]-6-cyclopentyl-4-hydroxy-2-oxo-5,6-dihydro-2H-pyran-3-yl}methyl)thieno[3,2-d]pyrimidin-4(3H)-one], the negative-log IC50 (pIC50) was 7.48.

Regarding `O=C1OC(CCc2ccc(O)c(CC(F)(F)F)c2)(C2CCCC2)CC(O)=C1Cc1nc2ncc(Cl)cn2n1` (racemic) [A(227), 3-[(6-chloro[1,2,4]triazolo[1,5-a]pyrimidin-2-yl)methyl]-6-cyclopentyl-4-hydroxy-6-{2-[4-hydroxy-3-(2,2,2-trifluoroethyl)phenyl]ethyl}-5,6-dihydro-2H-pyran-2-one], the pIC50 is 8.00. In the case of `Cc1cc(C)n2nc(CC3=C(O)CC(CCc4ccc(O)c(F)c4)(C4CCCC4)OC3=O)nc2n1` (centres unmarked) [B(105), 6-Cyclopentyl-3-(5,7-dimethyl-[1,2,4]triazolo[1,5-a]pyrimidin-2-ylmethyl)-6-[2-(3-fluoro-4-hydroxy-phenyl)-ethyl]-4-hydroxy-5,6-dihydro-pyran-2-one], the pIC50 is 7.34. As for `CCCOc1ccc(CCC2(C3CCCC3)CC(=O)CC(=O)O2)cc1` (centres unmarked) [A(60), 6-Cyclopentyl-6-[2-(4-propoxy-phenyl)-ethyl]-dihydro-pyran-2,4-dione], the pIC50 is 5.06.

With `COC1=CC(=O)OC(CCc2ccc(OC)c(Cl)c2)(C2CCCC2)C1` (centres unmarked) [G(3), 6-[2-(3-Chloro-4-methoxy-phenyl)-ethyl]-6-cyclopentyl-4-methoxy-5,6-dihydro-pyran-2-one], the pIC50 was 4.54.

In the case of `COc1ccc(CCC2(C3CCCC3)CC(O)=C(Sc3nc4cc(C#N)ccc4[nH]3)C(=O)O2)cc1Cl` (centres unmarked) [C(55), 2-({6-[2-(3-chloro-4-methoxyphenyl)ethyl]-6-cyclopentyl-4-hydroxy-2-oxo-5,6-dihydro-2H-pyran-3-yl}thio)-1H-benzimidazole-5-carbonitrile], the pIC50 is 7.52. On to `COc1ccc(CCC2(C3CCCC3)CC(O)=C(Cc3cccc(C#N)c3)C(=O)O2)cc1Cl` (centres unmarked) [B(23), 3-{6-[2-(3-Chloro-4-methoxy-phenyl)-ethyl]-6-cyclopentyl-4-hydroxy-2-oxo-5,6-dihydro-2-pyran-3-ylmethyl}-benzonitrile], for which the pIC50 is 6.06. Regarding `CCc1cc(CCC2(C3CCCC3)CC(O)=C(Cc3nc4ncccn4n3)C(=O)O2)cc(CC)c1O` (centres unmarked) [A(234), 6-cyclopentyl-6-[2-(3,5-diethyl-4-hydroxyphenyl)ethyl]-4-hydroxy-3-([1,2,4]triazolo[1,5-a]pyrimidin-2-ylmethyl)-5,6-dihydro-2H-pyran-2-one], the pIC50 is 7.96.
